The values below come from patent US4481197A, “Anti-inflammatory deoxyribosides” (Burroughs Wellcome Co., priority 1982, dated 1984).

The subject of data set [1] is microbial purine nucleoside phosphorylase. The note with it: Doskocil and Holy 1977; cited from earlier work.
The nature of the next data set: Analgesic activity. The note with it: in vivo.
Data set [2] concerns mouse neutrophil chemotaxis. Put plainly: Mouse neutrophil chemotaxis. In kind it is cell-based.
The test system of data set [3] is carrageenan pleurisy (3 hour exudate volume). Put plainly: Carrageenan Pleurisy Assay (CPA), acute anti-inflammatory activity. The format is in vivo. Conditions: statement in words. The procedure:
Following the procedure described by Vinegar et al in Proc. Soc. Exp. Biol. Med.,143, 711, (1973), and recently modified (Vinegar et al., Eur. J. Rheum. Inflam. 1, 204 (1978)) the acute anti-inflammatory activity of 4-amino-1-(2-deoxy-β-D-ribofuranosyl)-1H-imidazo-[4,5-c]-pyridine was compared with that of known anti-inflammatory drugs. The average 3 hour exudate volume for each drug-treated group was determined and the % inhibition relative to solvent-fed control animals calculated, the ED50 (mg/kg of body weight) being the dose required to reduce the 3 hour exudate volume by 50%. There were 5 animals in each drug-treated group and the control group.

Data set [4] in a line: Side effects / liver damage in animal models. The note with it: in vivo.
In the next data set the test system is inflammation. Put plainly: Anti-inflammatory effectiveness by route. In kind it is in vivo. The note with it: orally, systemically and locally.

For `Nc1ncnc2c1ccn2[C@@H]1O[C@H](CO)[C@@H](O)[C@H]1O` [7-deazaadenosine], in data set [1], the “substrate for microbial purine nucleoside phosphorylase” value (“substrate” for short) was “not to be substrates”.

As to `OC[C@H]1O[C@@H](n2ccc3c(O)ncnc32)[C@H](O)[C@@H]1O` [7-deazainosine], in data set [1], the “substrate” value is on record as “not to be substrates”.

As to `Nc1nccc2c1ncn2[C@H]1C[C@H](O)[C@@H](CO)O1` [4-amino-1-(2-deoxy-β-D-ribofuranosyl)-1H-imidazo-[4,5-c]-pyridine], the “analgesic activity per se” value in “Analgesic activity” is “no analgesic activity per se”. In data set [2], the “inhibition of mouse neutrophil chemotaxis” value was “potent inhibitor”. For the same compound, the “inhibition of carrageenan-induced pleurisy” value in data set [3] is listed as “potent inhibitor”. In addition, in data set [4], the “side effects associated with prostaglandin inhibitors (gastric damage, inhibition of platelet aggregation)” value is “free of the side effects” and the “side effects of the anti-inflammatory steroids” value is “free of the side effects”. In addition, the “effectiveness as anti-inflammatory agent” value in the data set with inflammation is listed as “effective”.

`Nc1nc2c(nnn2[C@@H]2O[C@H](CO)[C@@H](O)[C@H]2O)c(=O)[nH]1` [S-azaguanosine]: the “substrate” value in data set [1] is on record as “not to be substrates”.
